Measured values as given in US20220168193A1, “FLEXIBLE METAL PATCH HAVING ANTIOXIDANT ACTIVITY AND BRIGHTENING EFFECT AND METHOD FOR USING SAME” (LABNPEOPLE CO., LTD., priority 2019, published 2022).

Assay: DPPH free radical scavenging activity test
Type: biochemical
Details: for DPPH free radical scavenge activity (%) (mean ± standard deviation): 0.2 mM DPPH 1:1, 30 min
Method: To evaluate the DPPH free radical scavenging activity of the biodegradable metal of the present invention, samples were provided to the Korea Testing & Research Institute and the test thereof was performed in a manner described below by the Korea Testing & Research Institute at the request of the inventors.
a. Test substance • Magnesium patch with a purity of 95% or more (See FIG. 1 in which the patch is provided with microneedles that are not bent). • The sample used for the test is a sheet shape (dimensions: 2.6 mm×2.4 mm, thickness 0.1 t) made of Mg with a purity of 95% or more and including unavoidable impurities generated during manufacturing thereof.
b. Positive control • L-ascorbic acid: Sigma-Aldrich Corporation, Lot No. SLBR2586V
c. Etc. • 2,2-Diphenyl-1-picrylhydrazyl (DPPH): Sigma-Aldrich Corporation, Lot No. STBH0044 • Methanol: JINSEI, Lot No. 2016G2012
a. Preparation of test substance: The provided test substance was used without conversion of purity. Methanol was used to adjust the concentration.
After weighing L-ascorbic acid, it was prepared to have a predetermined concentration using methanol.
DPPH was prepared to have a concentration of 0.2 mM using methanol.
In a 96-well plate, each of the preparations (test substance and positive control substance) having different concentrations was mixed with a combination of 0.2 mM DPPH and methanol in a mixing ratio of 1:1.
After reacting at room temperature for 30 minutes in a light-shielding state, centrifugation was performed to obtain a supernatant, and absorbance was measured at a wavelength of 517 nm.
The free radical scavenger activity (%) of DPPH was calculated using Equation 1 below.
DPPH radical scavenging activity(%)=1−(A/B)×100 <Equation 1>
In Equation 1, A is the absorbance of the test substance, and B is the absorbance of the blank sample.
The result of each test was measured three times to obtain the mean value and standard deviation, and statistical analysis was performed using the SPSS statistical program (Ver. 19.0). First, after performing Levene's test, a one-way ANOVA test was performed. When significance was confirmed among the test groups, a post-hoc test was performed depending on the presence or absence of homogeneity of variances (when the variances are homogeneous, Duncan's multiple test was performed whereas when the variances were heterogeneous, Dunnett's T3 was performed).

Question: What does the source list for `O=C1O[C@H]([C@@H](O)CO)C(O)=C1O` [L-ascorbic acid]?
Answer: DPPH free radical scavenge activity (%) (mean ± standard deviation) (concentration 0.0005%): 20.96%; DPPH free radical scavenge activity (%) (mean ± standard deviation) (concentration 0.001%): 40.38%; DPPH free radical scavenge activity (%) (mean ± standard deviation) (concentration 0.0015%): 65.57%; DPPH free radical scavenge activity (%) (mean ± standard deviation) (concentration 0.002%): 83.24%; IC50 (concentration at which 50% activity is exhibited), DPPH scavenging (methanol solution): 0.0012%
